Residues, ends and D or L forms follow the SMILES beside them. *: point of attachment. Cbz = O=C(OCc1ccccc1)*

The target of one test is T1, NMT1 (Homo sapiens, UniProt P30419).
T1 construct: We generated His-tagged full-length (His-NMT1 and His-NMT2) and caspase truncated (His-73NMT1, His-26NMT2 and His-68NMT2) human NMT vectors; His6 (N); made in house; host or cells: E. coli Lemo21(DE3) pLysS
The test is described as follows: In vitro NMT activity (peptide myristoylation) assay. It is filed as biochemical. The source says:
(§1) In vitro NMT activity assay. N-myristoyltransferase activity assay protocol was adapted from Raju, R. V., and Sharma, R. K. (1999) Preparation and assay of myristoyl-CoA:protein N-myristoyltransferase. Methods Mol Biol 116, 193-211. [^3H] myristoyl-CoA was freshly synthesized for each experiment, as previously described by Towler, D., and Glaser, L. (1986) Protein fatty acid acylation: enzymatic synthesis of an N-myristoylglycyl peptide. Proc Nat Acad Sci USA 83, 2812-2816. Briefly, cells were resuspended in 0.25 M sucrose buffer (50 mM NaH2PO4, pH 7.4) and subjected to 2 rounds of sonication at level 6.0 on a Branson Sonicator. Reaction mixture is composed of 10 μL of cell extract (about 20 μg of proteins) incubated in NMT activity buffer (0.26M Tris-HCl, 3.25 mM EGTA, 2.92 mM EDTA and 29.25 mM 2-mercaptoethanol, 1% Triton X-100, pH 7.4) and myristoylable or non-myristoylable decapeptide corresponding to the N-terminal sequence of truncated-Bid (0.1 mM dissolved in water). Reaction was started by the addition of 7.4 μL (≈10 pMol) of freshly synthesized [^3H] myristoyl-CoA (final mixture volume=25 μL) and incubated for 15 min at 30° C. The reaction is stopped by spotting 15 μL of the reaction mixture on a P81 phosphocellulose paper disc (Whatman, Kent, UK) and dried for 30 seconds. Discs were washed (washing buffer: 25 mM Tris buffer, pH 7.4) to remove the residual radioactivity ([^3H]-myristate and [^3H]-myristoyl-CoA) while [^3H]-myristoyl-peptide is retained on the phosphocellulose paper. Radioactivity was quantified by liquid scintillation counting and converted into pMol of myristoylated peptide (Raju, R. V., and Sharma, R. K. (1999) Preparation and assay of myristoyl-CoA:protein N-myristoyltransferase. Methods Mol Biol 116, 193-211
(§2) NMT activity was assayed using a peptide myristoylation assay with purified recombinant NMT1 and NMT2. NMT activity was calculated from the amount of radiolabeled myristoylpeptide produced and detected on phosphocellulose paper (adapted from King et al. 1991, Anal Biochem.).
(§3) In this example, in FIG. 10, the sensitivity of various immortalized normal LO B lymphocytes (obtained from Dr. Riabowol, U. of Calgary), malignant B lymphoma cells (Ramos and BL2), and, T cell leukemia (CEM) is shown to the NMT inhibitor TrisDBA for 24 hours (A) Residual viability of various cell lines treated with TrisDBA for 24 hours (n=9) (B) Effect of TrisDBA on N-myristoyltransferase activity in COS7 cells transiently expressing NMT1 or NMT2 incubated for 24 h with TrisDBA. In vitro the IC50 for TrisDBA is approximately 2 μM for NMT1 and 5 μM for NMT2.

The next test deals with T2, NMT2 (Homo sapiens, UniProt O60551).
T2 construct: We generated His-tagged full-length (His-NMT1 and His-NMT2) and caspase truncated (His-73NMT1, His-26NMT2 and His-68NMT2) human NMT vectors; His6 (N); made in house; host or cells: E. coli Lemo21(DE3) pLysS
The test is described as above. It is filed as biochemical.
From the text: as §1, §2, §3

Test [1] concerns Ramos B lymphoma cells transfected with pcDNA3.1-V5-NMT2. In words: Survival of NMT2-transfected Ramos cells, trypan blue exclusion. It is filed as cell-based, human. Conditions: TrisDBA 5 ug/ml, 24 hours. As to the method:
(§4) Cell viability assay. B and T cell viability was measured using the trypan blue exclusion method. Cells were grown in confluency conditions (2×10^6 cells/mL maximum) assuring the minimum basal apoptosis. […] Cell viability was quantified using the TC10™ automated cell counter (Biorad).

In test [2] the test system is BL-2 (Burkitt's lymphoma) cells. The test is described as follows: Trypan blue exclusion cell viability assay. It is filed as cell-based, human. Conditions: BL-2, 24 hours, compared with L0 and CEM cells. The method, then: as §4
(§5) The drugs were dissolved in DMSO to make 100× stock solutions for each concentration tested, so that the final volume of DMSO in each well was 1%.
(§6) Cell viability was then quantified using the TC10™ automated cell counter (Biorad).

The subject of test [3] is Ramos (Burkitt's lymphoma) cells. In words: Trypan blue exclusion cell viability assay. It is filed as cell-based, human. Conditions: 24 hours, compared with L0 and CEM cells. The method, then:
as §4, §5, §6

For test [4], the system named is NMT1 levels in IM9, Ramos, BL2 cells. In words: Western blot of protein levels after SAHA treatment. It is filed as cell-based, human. Conditions: 1 μM, 24 h. As to the method:
(§7) IM9, BL2 and Ramos cells were plated at 3×10^6 cells per well in a 6-well dish and treated with 1 μM suberoylanilide hydroxamic acid (SAHA), which is a reversible inhibitor of class I and class II histone deacetylases (HDACs), for 24 hours. Equal amount of DMSO was added to cells as a control. Cells were lysed and subjected to SDS-PAGE/Western blot analyses.
(§8) To test whether the reduction in mRNA NMT2 was due to chromatin silencing, we treated “normal” B cells (IM9) and malignant BL cells with suberoylanilide hydroxamic acid (SAHA) (also named vorinostat), a class I and class II histone deacetylase inhibitor, for 24 hours and monitored the levels of NMT1 and NMT2 by western blot. In particular, “Normal” B cells (IM9) and malignant BL cells (Ramos, BL2) treated with 1 μM SAHA (HDAC class I/II inhibitor) for 24 h. Cells were then lysed, subjected to SDS-PAGE and western blotting was performed with NMT1, NMT2, p21/WAF1 and GAPDH antibodies.
In general terms: In western blotting, separated proteins are transferred to a membrane and probed.

For test [5], the system named is NMT2 levels in BL cells (Ramos, BL2). Described as above. Conditions: 1 μM, 24 h. It is filed as cell-based, human. The method, then: as §7, §8
Test [6] deals with p21/WAF1 levels in IM9, Ramos, BL2 cells. The test is described as above. It is filed as cell-based, human. Conditions: all cells, 1 μM, 24 h. The method, then: as §7, §8
The test system of test [7] is Mcl-1 levels in IM9, KMH2, Ramos, BL2 cells. The test is described as follows: Western blot of protein levels after MG-132 treatment. It is filed as cell-based, human. The conditions noted are these: all cell types, 10 μM, 5 h. The method, then: (§9) IM9, KMH2, BL2 and Ramos cells were plated (3×10^6 cells per well in a 6-well dish) and treated with 10 μM MG-132 for 5 hours. Equal amount of DMSO was added to the control samples. Cells were then lysed and subjected to SDS-PAGE/Western blot analyses.
(§10) In this example, in FIG. 26, it is shown that proteosomal degradation is not the cause of NMT2 depletion in BL cells. In these experiments, “Normal” immortalized B lymphocytes (IM9) and malignant B lymphoma cells [Hodgkin's lymphoma (KMH2) and BL (Ramos, BL2)] treated with 10 μM of proteosomal inhibitor (MG-132) for 5 h. Western blotting was performed on cell lysates to monitor levels of NMT1, NMT2, Mcl-1, and GAPDH.
(§11) To investigate whether NMT2's degradation was increased as a result of a destabilizing mutation or the presence of an unknown factor that could destabilize NMT2 in cancer cells, we treated normal and malignant lymphocytes with the proteosomal degradation inhibitor MG-132 for 5 h. Cell lysates were subjected to western blotting to analyze the presence of NMT1, NMT2 and myeloid cell leukemia-1 protein (Mcl-1), which was used as a control to check the effectiveness of MG-132 since it is subject to proteosomal degradation.

For test [8], the system named is NMT2 levels in BL cells (Ramos, BL2). The test is described as above. It is filed as cell-based, human. The conditions noted are these: 10 μM, 5 h. As to the method: as §9, §10, §11

T2 sequence (O60551 whole entry, the tested form may be a part): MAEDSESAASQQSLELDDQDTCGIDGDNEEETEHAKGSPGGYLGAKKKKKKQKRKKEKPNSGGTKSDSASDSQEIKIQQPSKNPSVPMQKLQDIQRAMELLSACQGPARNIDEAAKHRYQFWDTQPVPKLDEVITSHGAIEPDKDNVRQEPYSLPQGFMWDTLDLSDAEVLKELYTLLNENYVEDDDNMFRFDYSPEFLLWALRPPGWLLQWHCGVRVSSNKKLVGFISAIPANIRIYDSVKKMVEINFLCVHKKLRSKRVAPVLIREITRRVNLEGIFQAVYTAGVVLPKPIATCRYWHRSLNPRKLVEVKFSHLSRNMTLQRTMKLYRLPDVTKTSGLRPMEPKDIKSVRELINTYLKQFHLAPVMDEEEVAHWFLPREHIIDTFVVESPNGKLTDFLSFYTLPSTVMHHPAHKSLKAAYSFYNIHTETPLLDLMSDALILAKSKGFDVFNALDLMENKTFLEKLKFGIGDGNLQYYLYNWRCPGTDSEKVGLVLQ
T1 sequence (P30419 whole entry, the tested form may be a part): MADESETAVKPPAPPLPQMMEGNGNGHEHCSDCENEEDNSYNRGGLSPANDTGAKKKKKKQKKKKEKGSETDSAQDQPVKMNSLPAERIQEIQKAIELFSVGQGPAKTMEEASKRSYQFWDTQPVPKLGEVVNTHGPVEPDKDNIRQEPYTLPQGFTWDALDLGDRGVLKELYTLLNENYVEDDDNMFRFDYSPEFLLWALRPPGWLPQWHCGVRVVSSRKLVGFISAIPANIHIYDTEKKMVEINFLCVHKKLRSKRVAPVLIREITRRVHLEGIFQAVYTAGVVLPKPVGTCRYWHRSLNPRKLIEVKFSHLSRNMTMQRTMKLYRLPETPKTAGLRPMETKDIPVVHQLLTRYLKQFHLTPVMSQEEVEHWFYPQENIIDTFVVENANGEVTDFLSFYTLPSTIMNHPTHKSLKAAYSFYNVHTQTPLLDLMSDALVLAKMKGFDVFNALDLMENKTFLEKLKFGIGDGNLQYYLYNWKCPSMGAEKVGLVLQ

The term IC50 denotes the point on the concentration scale where inhibition reaches its midpoint. Regarding “tris-dibenzylideneacetone-dipalladium [TrisDBA]”, the IC50 against NMT1 (NMT1, in vitro) was ~2 µM; at NMT2 (NMT2, in vitro), ~5 µM. For the same compound, the “inhibition of NMT activity” value on NMT1 (purified recombinant NMT1) and on NMT2 (purified recombinant NMT2) was “inhibits NMT in vitro” each time. Besides, the “increase of survival by NMT2 transfection vs control cells transfected with empty plasmid vector” value in test [1] is 2.5 fold. The “sensitivity (residual viability)” value in test [2] and in test [3] was “more sensitive” in each case.

As to `O=C(CCCCCCC(=O)Nc1ccccc1)NO` [SAHA, suberoylanilide hydroxamic acid], the NMT1 levels result in [4] is given as “remained relatively unchanged”. Also, the NMT2 levels entry in test [5] was “increased NMT2 levels”. The p21/WAF1 levels result in [6] is “increased p21/WAF1 levels”.

On to `CC(C)C[C@@H](C=O)NC(=O)[C@H](CC(C)C)NC(=O)[C@H](CC(C)C)NC(=O)OCc1ccccc1` [MG-132] (Cbz-Leu-Leu-Leu-aldehyde), for which, in test [7], the Mcl-1 levels entry is “increased levels of Mcl-1”. Moreover, in [8], the NMT2 levels entry is reported as “did not increase”.

(Values after patent US20250179589A1, “SYNTHETIC LETHALITY AND THE TREATMENT OF CANCER” (PACYLEX PHARMACEUTICALS INC., priority 2012, published 2025).)
